Source: ChEMBL document CHEMBL1649071, “4-[18F]fluoroglutamic acid (BAY 85-8050), a new amino acid radiotracer for PET imaging of tumors: synthesis and in vitro characterization” (J Med Chem, 2011)
Values belong to the compound of their own block, whether it stands above or below them.

Assays:
Assay type in all cases: ADME, cell-based; call rule not given here
[1] = system: A549; assay: Drug uptake in human A549 cells at 250 kBq by gamma-counting; settings: TDE = time-dependent effect
[2] = system: A549; assay: Drug uptake in human A549 cells at 250 kBq after 20 mins by gamma-counting; settings: a549, 20 min
[3] = system: HT-29; assay: Drug uptake in human HT-29 cells at 250 kBq after 20 mins by gamma-counting in presence of L-glutamic acid; settings: ht-29, 20 min
[4] = system: A549; assay: Drug uptake in human A549 cells at 250 kBq after 30 mins by gamma-counting in presence of L-glutamic acid; settings: a549, 0.5 h
[5] = system: A549; assay: Drug uptake in human A549 cells at 250 kBq after 30 mins by gamma-counting; settings: a549, 0.5 h
[6] = system: HT-29; assay: Drug uptake in human HT-29 cells at 250 kBq after 20 mins by gamma-counting; settings: ht-29, 20 min
[7] = system: HT-29; assay: Drug uptake in human HT-29 cells at 250 kBq after 20 mins by gamma-counting in presence of D-glucose; settings: ht-29, 20 min
[8] = system: A549; assay: Drug uptake in human A549 cells at 250 kBq after 30 mins by gamma-counting in presence of D-glucose; settings: a549, 0.5 h

Drug uptake [1]: tde | Drug uptake [2]: 9.3% | Drug uptake [3]: Not Active | Drug uptake [4]: Not Active | Drug uptake [5]: 12% | Drug uptake [6]: 4%
Structure (SMILES): N[C@@H](CC([18F])C(=O)O)C(=O)O (stereo not given in full)

Drug uptake [5]: Active
Structure (SMILES): N[C@@H](C[C@H](F)C(=O)O)C(=O)O

Drug uptake [5]: Active
Structure (SMILES): N[C@@H](C[C@@H](F)C(=O)O)C(=O)O

Drug uptake [7]: Not Active | Drug uptake [8]: Not Active
Structure (SMILES): OC[C@H]1O[C@@H](O)[C@H]([18F])[C@@H](O)[C@@H]1O [FLUDEOXYGLUCOSE-F18]
